Assay results as given in article PMC5182151 (International journal of pharmaceutics, 2016).

Key:
[1] = physchem; type: physicochemical
[2] = Stability of VD3-TyroSphere formulations during storage; type: physicochemical; details: in Transcutol (1mg/ml), 2 months storing at room temperature
[3] = VD3 dispersion in water, UV light for 9.5h; ref Luo et al., 2012; cited from earlier work

Compound: C=C1CC[C@H](O)C/C1=C/C=C1\CCC[C@]2(C)[C@@H]([C@H](C)CCCC(C)C)CC[C@@H]12 [VD3, cholecalciferol]
- half-life [1]: 76 h
- drug lost in first 24h exposure to UV light ([1]; VD3 in methanol solution, 254 nm UV): ~20%
- photodegradation rate constant (zero-order) ([1]; VD3 in methanol, 254 nm UV): -1.194 µg/mL/h
- VD3 left after 134 h UV exposure ([1]; methanol formulation, 254 nm UV): 21%
- VD3 detected [2]: 2%
- VD3 remained after UV exposure [3]: about 30%
